Like-named read-outs stand apart in the source and are kept apart here.
Legend:
[1] = literature study; cited from earlier work
[2] = Progesterone solubility trials; type: physicochemical
Protocol: The purpose of the formulation studies was to establish a product vehicle that was suitable for solubilisation of a relatively high concentration of Progesterone but in which Gonadorelin would be stable. […] Low solubility of Progesterone (even in organic solvents) further limited the choice of injectable organic vehicles.
Further Solubility Trials were conducted as follows: […]

[3] = Progesterone solubility and precipitation at low temperature (2-8° C.); type: physicochemical; conditions: solubility study; most appropriate combination
Protocol: Since addition of acids reduced the amount of NMP available for dissolution of Progesterone, samples prepared with different acids were refrigerated at 2-8° C. to investigate progesterone solubility and the occurrence of precipitation at low temperatures. The appearance of crystals in samples prepared with formic and hydrochloric acid was obvious after several hours of refrigeration. Crystals appeared after 1-2 days in samples prepared with phosphoric acid. FTIR testing confirmed that the precipitate was crystalline progesterone, which was difficult to redissolve due to the crystalline form of the precipitate. At this stage a further search for vehicle that would provide sufficient progesterone solubility at low temperatures was conducted. […] A solubility study confirmed that the most appropriate combination was NMP+water+phosphoric acid with progesterone amount not exceeding 8-10% w/v.

cows [4] = conditions: cited from earlier work
LH [5] = conditions: exogenous GnRH; cited from earlier work
cows [6] = conditions: cited from earlier work; remark: listed apart in the source
LH [7] = conditions: in vivo; cited from earlier work

CN1CCCC1=O [NMP, N-methyl-2-pyrrolidone]
pH of NMP [1]: approximately 11.5

CC(=O)[C@H]1CC[C@H]2[C@@H]3CCC4=CC(=O)CC[C@]4(C)[C@H]3CC[C@]12C [Progesterone]
Solubility of Progesterone ([2]; pure solvent PEG400): marginal
Solubility of Progesterone ([2]; pure solvent Propylene Glycol): marginal
Solubility of Progesterone ([2]; pure solvent Tetraglycol): marginal
progesterone amount in NMP+water+phosphoric acid [3]: 8-10 % w/v
average serum progesterone levels (cows [4]; beef cows primed via a used CIDR implant): 1.5 ng/mL
serum Progesterone levels that provide effective biological activity (cows [4]; in vivo): 1-3 ng/mL
follicle size (cows [4]; three days of progesterone treatment): 13.7 mm

CC(C)C[C@H](NC(=O)CNC(=O)[C@H](Cc1ccc(O)cc1)NC(=O)[C@H](CO)NC(=O)[C@H](Cc1c[nH]c2ccccc12)NC(=O)[C@H](Cc1cnc[nH]1)NC(=O)[C@@H]1CCC(=O)N1)C(=O)N[C@@H](CCCNC(=N)N)C(=O)N1CCC[C@H]1C(=O)NCC(N)=O [GnRH]
duration of GnRH-induced LH surge (LH [5]): 7 to 14 h
peak serum levels of LH (LH [5]): 9 to 22 ng/mL
ovulation rate (cows [6]; 25 μg of GnRH): dramatic reduction in ovulation rates
ovulation rate (cows [6]; 50 μg of GnRH): identical ovulation rate to 100 μg

C[C@]12CC[C@@H]3c4ccc(O)cc4CC[C@H]3[C@@H]1CC[C@@H]2OC(=O)CCC1CCCC1 [ECP, Estradiol Cypionate]
time of LH surge after administration (LH [7]): around 40 hours
